From patent US20160075653A1, “NEMATICIDAL N-(PHENYLCYCLOALKYL)CARBOXAMIDES AND N-(PHENYLCYCLOALKYL)THIOCARBOXAMIDES” (BAYER CROPSCIENCE AKTIENGESELLSCHAFT, priority 2013, published 2016)

Test: Measurement of log P values by HPLC on reversed phase columns (methods [a] pH 2.3, [b] pH 2.7, [c] pH 7.8)
Format: physicochemical
Conditions: for logP: HPLC reversed phase; for chromatographic logP: reversed phase HPLC columns, pH 2.7, HPLC reversed phase, read-out: logP
Summary of the method: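 Determined per EEC Directive 79/831 Annex V.A8 by reversed-phase HPLC, 10-95% acetonitrile gradient: [a] pH 2.3, 0.1% phosphoric acid; [b] LC-MS, pH 2.7, 0.1% formic acid; [c] LC-MS, pH 7.8, 0.001 molar ammonium hydrogen carbonate. Calibrated with C3-C16 alkan-2-ones by retention-time interpolation.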

Compound | logP (method [b], pH 2.7) | logP (method [b] (pH 2.7)) | also measured
Cn1nc(C(F)F)c(C(=O)NC2CCCCC2c2ccccc2)c1F (centres unmarked) [Example 181] | 3.13^[b] |  | 
Cn1nc(C(F)F)c(C(=O)NC2CCCCC2c2ccccc2)c1F (centres unmarked) [Example 182] | 3.29^[b] |  | 
Cn1nc(C(F)F)c(C(=O)NC2CCCCC2c2ccccc2)c1Cl (centres unmarked) [Example 183] | 3.51^[b] |  | 
Cn1nc(C(F)F)c(C(=O)NC2CCCCC2c2ccccc2)c1Cl (centres unmarked) [Example 184] | 3.33^[b] |  | 
Cn1cc(C(=O)NC2CCCCC2c2ccccc2)c(C(F)F)n1 (centres unmarked) [Example 185] | 2.76^[b] |  | 
Cn1cc(C(=O)NC2CCCCC2c2ccccc2)c(C(F)F)n1 (centres unmarked) [Example 186] | 3.00^[b] |  | 
Cn1nc(C(F)F)c(C(=O)NC2CC2c2cccc(F)c2)c1F (centres unmarked) [Example 187] | 2.59^[b] |  | 
Cn1nc(C(F)F)c(C(=O)NC2CC2c2ccc(F)cc2)c1F (centres unmarked) [Example 188] | 2.59^[b] |  | 
Cn1nc(C(F)F)c(C(=O)NC2CC2c2ccccc2C(F)(F)F)c1F (centres unmarked) [Example 189] | 3.00^[b] |  | 
Cn1nc(C(F)F)c(C(=S)N(C2CC2)C2CCCCC2(C)c2ccccc2)c1F (centres unmarked) [Example 190] | 5.01^[b] |  | 
Cn1nc(C(F)F)c(C(=O)NC2CC2c2cccc(F)c2)c1Cl (centres unmarked) [Example 191] | 2.75^[b] |  | 
Cn1nc(C(F)F)c(C(=O)NC2CC2c2ccc(F)cc2)c1Cl (centres unmarked) [Example 192] | 2.75^[b] |  | 
Cn1nc(C(F)F)c(C(=O)NC2CC2c2ccccc2C(F)(F)F)c1Cl (centres unmarked) [Example 193] | 3.15^[b] |  | 
CN(C(=O)c1c(C(F)F)nn(C)c1F)C1CCCCC1c1ccccc1 (centres unmarked) [Example 196] | 3.27^[b] |  | 
CN(C(=O)c1c(C(F)F)nn(C)c1Cl)C1CCCCC1c1ccccc1 (centres unmarked) [Example 197] | 3.63^[b] |  | 
O=C(NC1CC1c1ccc(Cl)cc1)c1ccccc1Cl (centres unmarked) [Example 198] | 3.09^[b] |  | logP (method [c], pH 7.8): 3.02^[c];
O=C(NC1CC1c1ccc(Cl)cc1)c1ccccc1I (centres unmarked) [Example 199] | 3.24^[b] |  | logP (method [c], pH 7.8): 3.19^[c];
O=C(NC1CC1c1ccc(Cl)cc1)c1c(F)cccc1F (centres unmarked) [Example 200] | 2.94^[b] |  | logP (method [c], pH 7.8): 2.89^[c];
O=C(NC1CC1c1ccc(Cl)cc1)c1ccccc1C(F)(F)F (centres unmarked) [Example 201] | 3.27^[b] |  | logP (method [c], pH 7.8): 3.21^[c];
O=C(NC1CC1c1ccc(Cl)cc1)c1sccc1I (centres unmarked) [Example 202] | 3.56^[b] |  | logP (method [c], pH 7.8): 3.50^[c];
O=C(NC1CC1c1ccc(Cl)cc1)c1occc1Br (centres unmarked) [Example 204] | 3.04^[b] |  | logP (method [c], pH 7.8): 2.98^[c];

Compound | logP (method [b], pH 2.7) | logP (method [b] (pH 2.7)) | also measured
O=C(NC1CC1c1ccc(Cl)cc1Cl)c1ccccc1F (centres unmarked) [Example 205] | 3.66^[b] |  | logP (method [c], pH 7.8): 3.55^[c];
O=C(NC1CC1c1ccc(Cl)cc1Cl)c1ccccc1Cl (centres unmarked) [Example 206] | 3.57^[b] |  | logP (method [c], pH 7.8): 3.47^[c];
O=C(NC1CC1c1ccc(Cl)cc1Cl)c1ccccc1Br (centres unmarked) [Example 207] | 3.58^[b] |  | logP (method [c], pH 7.8): 3.52^[c];
O=C(NC1CC1c1ccc(Cl)cc1Cl)c1ccccc1I (centres unmarked) [Example 208] | 3.74^[b] |  | logP (method [c], pH 7.8): 3.64^[c];
O=C(NC1CC1c1ccc(Cl)cc1Cl)c1c(F)cccc1F (centres unmarked) [Example 209] | 3.36^[b] |  | logP (method [c], pH 7.8): 3.29^[c];
O=C(NC1CC1c1ccc(Cl)cc1Cl)c1ccccc1C(F)(F)F (centres unmarked) [Example 210] | 3.73^[b] |  | logP (method [c], pH 7.8): 3.62^[c];
O=C(NC1CC1c1ccc(Cl)cc1Cl)c1cccnc1Cl (centres unmarked) [Example 211] | 2.82^[b] |  | logP (method [c], pH 7.8): 2.77^[c];
O=C(NC1CCC1c1c(F)cccc1F)c1ncc(C(F)(F)F)cc1Cl (centres unmarked) [Example 228] | 3.61^[b] |  | 
O=C(NC1CC1c1ccccc1Cl)c1ccccc1I (centres unmarked) [Example 229] | 3.14^[b] |  | 
O=C(NC1CC1c1ccccc1Cl)c1ccccc1C(F)(F)F (centres unmarked) [Example 230] | 3.13^[b] |  | 
Cn1cc(C(=O)NC2CC2c2ccccc2Cl)c(C(F)F)n1 (centres unmarked) [Example 231] | 2.45^[b] |  | 
O=C(NC1CC1c1ccccc1C(F)(F)F)c1ccccc1I (centres unmarked) [Example 232] | 3.31^[b] |  | 
O=C(NC1CC1c1ccccc1C(F)(F)F)c1ccccc1C(F)(F)F (centres unmarked) [Example 233] | 3.29^[b] |  | 
Cn1cc(C(=O)NC2CC2c2ccccc2C(F)(F)F)c(C(F)F)n1 (centres unmarked) [Example 234] | 2.64^[b] |  | 
O=C(NC1CCC1c1ccccc1Cl)c1ncc(C(F)(F)F)cc1Cl (centres unmarked) [Example 237] | 3.96^[b] |  | 
O=C(NC1CCC1c1ccccc1Cl)c1ccccc1Cl (centres unmarked) [Example 239] | 3.30^[b] |  | 
O=C(NC1CC1c1ccc(Cl)cc1)c1c(F)cccc1C(F)(F)F (centres unmarked) [Example 270] |  | 3.08^[b] | logP (method [c] pH 7.8): 3.03^[c];
O=C(NC1CC1c1ccc(Cl)cc1)c1ccccc1Br (centres unmarked) [Example 272] |  | 2.82^[b] | logP (method [c] pH 7.8): 2.76^[c];
O=C(NC1CC1c1ccc(Cl)cc1)c1ccccc1Cl (centres unmarked) [Example 275] |  | 2.77^[b] | logP (method [c] pH 7.8): 2.71^[c];
Cc1nn(C)cc1C(=O)NC1CCCC1c1ccc(Cl)cc1 (centres unmarked) [Example 277] |  | 2.31^[b] | 
O=C(NC1CCCC1c1ccc(Cl)cc1)c1ccccc1Cl (centres unmarked) [Example 278] |  | 3.45^[b] | 

Compound | logP (method [b], pH 2.7) | logP (method [b] (pH 2.7)) | also measured
O=C(NC1CCCC1c1ccc(Cl)cc1)c1ccccc1C(F)(F)F (centres unmarked) [Example 279] |  | 3.64^[b] | 
O=C(NC1CCCC1c1ccc(Cl)cc1)c1ccccc1I (centres unmarked) [Example 280] |  | 3.64^[b] | 
O=C(NC1CCCC1c1ccc(Cl)cc1)c1cccnc1Cl (centres unmarked) [Example 281] |  | 2.81^[b] | 
O=C(NC1CCCC1c1ccc(Cl)cc1)c1c(F)cccc1F (centres unmarked) [Example 282] |  | 3.28^[b] | 
O=C(NC1CCCC1c1ccc(Cl)cc1)c1cccnc1C(F)(F)F (centres unmarked) [Example 283] |  |  | chromatographic logP (method [b] (pH 2.7)): 2.83
Cc1nc(C)c(C(=O)NC2CCCC2c2ccc(Cl)cc2)s1 (centres unmarked) [Example 284] |  | 3.11^[b] | 
O=C(NC1CCCC1c1ccccc1C(F)(F)F)c1ccccc1I (centres unmarked) [Example 285] |  | 3.81^[b] | 
O=C(NC1CCCC1c1ccccc1C(F)(F)F)c1ccccc1C(F)(F)F (centres unmarked) [Example 286] |  | 3.79^[b] | 
Cn1cc(C(=O)NC2CCCC2c2ccccc2C(F)(F)F)c(C(F)F)n1 (centres unmarked) [Example 287] |  | 3.06^[b] | 
O=C(N[C@@H]1CCC[C@@H]1c1ccccc1C(F)(F)F)c1cccnc1C(F)(F)F [Example 290] |  |  | chromatographic logP (method [b] (pH 2.7)): 3.29
Cc1nc(C)c(C(=O)NC2CCCC2c2ccccc2Cl)s1 (centres unmarked) [Example 291] |  | 2.73^[b] | 
Cc1nn(C)cc1C(=O)NC1CCCC1c1ccccc1Cl (centres unmarked) [Example 292] |  | 2.24^[b] | 
O=C(NC1CCCC1c1ccccc1Cl)c1cccnc1Cl (centres unmarked) [Example 293] |  | 2.64^[b] | 
O=C(NC1CCCC1c1ccccc1Cl)c1ccccc1Cl (centres unmarked) [Example 294] |  | 3.42^[b] | 
O=C(NC1CCCC1c1ccccc1Cl)c1ccccc1I (centres unmarked) [Example 295] |  | 3.51^[b] | 
O=C(NC1CCCC1c1ccccc1C(F)(F)F)c1ccccc1Cl (centres unmarked) [Example 300] |  | 3.56^[b] | 
O=C(NC1CCCC1c1ccccc1C(F)(F)F)c1cccnc1Cl (centres unmarked) [Example 301] |  | 2.90^[b] | 
O=C(NC1CCCC1c1ccc(C(F)(F)F)cc1)c1ccccc1Cl (centres unmarked) [Example 305] |  | 3.68^[b] | logP (method [c] pH 7.8): 3.63^[c];
CN(C(=O)c1ccccc1C(F)(F)F)C1CCCC1c1ccc(C(F)(F)F)cc1 (centres unmarked) [Example 307] |  | 4.46^[b] | logP (method [c] pH 7.8): 4.40^[c];
Cc1nc(C)c(C(=O)NC2CCCC2c2ccccc2C(F)(F)F)s1 (centres unmarked) [Example 308] |  | 2.97^[b] | 
